Experimental data from paper PMC1940322, “The Effect of PPARα, PPARδ, PPARγ, and PPARpan Agonists on Body Weight, Body Mass, and Serum Lipid Profiles in Diet-Induced Obese AKR/J Mice” (PPAR Research, 2007).

What was measured:
[1] = tested on: fatty acid oxidation in mouse liver; assay: Ex vivo fatty acid oxidation in liver homogenates (14C-CO2 capture); conditions: liver extracts from animals treated for 28 days
Protocol: Fatty acid oxidation (FAO) was determined by ^14C-labeled CO2 capture from tissue homogenates using a method modified from Dohm et al.. Following treatment with either vehicle or a PPAR agonist, livers from fed mice were surgically removed and a section excised from the same lobe. The tissue was immediately weighed, minced with scissors and placed in tubes (Falcon #2063) on ice. Cold SET buffer (250 mM Sucrose, 1 mM EDTA, 10 mM Tris, pH 7.4) was added at a ratio of 10 mL SET:1 gram of tissue and the tissue homogenized on ice for 15 sec using a hand-held homogenizer (Polytron PT1200; Kinematica AG). The homogenates remained on ice until assayed.
The labeled reaction buffer was prepared by first drying ^14C-oleic acid (0.5 μCi/reaction; PerkinElmer #NEC-317) under nitrogen. The dried fraction is re-suspended in unlabeled oleic acid such that the final concentration of oleic acid in the reaction buffer was 0.2 mM. BSA was added slowly while mixing to a final concentration of 0.5% and the mixture was incubated at 37°C for 15 minutes. The labeled cocktail was then added to the reaction buffer to give a produce concentration of 100 mM sucrose, 10 mM Tris pH 7.4, 4 mM ATP, 0.05 mM Coenzyme A, 0.1 mM malic acid, 1 mM magnesium chloride, 80 mM potassium chloride, 5 mM potassium phosphate, 0.2 mM EDTA, and 2 mM L-carnitine, as described previously.
Oxidation reactions were performed in tubes (Falcon #352059) fitted with a stopper top (KONTES Glass Co., #882310-0000), center well (KONTES #882320-0000), and filter (Socorex #322.02) soaked with 175 μL of 1N NaOH. 100 μL of homogenate was dispensed into each tube and the reactions initiated by adding 400 μL of reaction buffer. The tubes were quickly capped and incubated with gentle shaking for 60 minutes in a 37°C water bath. After incubation, the filters were removed, from the tubes, placed in 7 mL of scintillant, and counted for 2 minutes (PerkinElmer Tri-Carb 3100TR). The oxidative activity of each compound was calculated as nmole CO2 captured/gram tissue/hour and reported as fold change relative to vehicle control.
On the final day of each experiment, a terminal blood sample (800–1000 μL) was obtained via cardiac puncture under isoflurane anesthesia. Whole blood was placed in a Terumo Capiject blood collection tube (Terumo Medical Corp., Elkton, Md, USA), allowed to sit at room temperature for 20 minutes then centrifuged to obtain serum. Serum levels of glucose, triglycerides, glycerol, nonesterified fatty acids, total cholesterol, the high-density lipoprotein cholesterol, and β-hydroxybutyrate were determined in all mice using an Olympus AU640 clinical chemistry immuno-analyzer (Olympus America Inc., Melville, NY, USA). In addition, liver weights were obtained following the terminal blood sample on the final day of the study and samples were used to determine liver fatty acid oxidation activity.

murine PPARγ = target: T1, murine PPARγ (Mus musculus, UniProt P37238); assay: PPAR-GAL4 transient transfection transactivation assay (SPAP reporter) in CV-1 cells, PPARγ; type: cell-based; conditions: for EC50: CV-1 cells, GAL4 chimera, read-out: mPPARγ, murine receptor activation EC50; for mPPARγ %Max: maximal activation vs reference comparator
T1 construct: expressed in transfected cells; host or cells: CV-1 cells
T1 sequence (P37238 238-503 limits assumed): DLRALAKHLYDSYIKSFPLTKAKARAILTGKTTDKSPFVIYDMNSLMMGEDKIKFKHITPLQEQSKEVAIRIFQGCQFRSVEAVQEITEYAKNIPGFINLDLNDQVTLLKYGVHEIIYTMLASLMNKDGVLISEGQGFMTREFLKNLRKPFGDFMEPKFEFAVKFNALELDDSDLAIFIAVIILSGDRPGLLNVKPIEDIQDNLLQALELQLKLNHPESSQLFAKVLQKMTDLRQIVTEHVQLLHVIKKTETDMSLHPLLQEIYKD
Protocol: The functional potency of selected ligands was evaluated using a transient transfection assay in CV-1 cells. The ligand binding domains for murine PPARα, PPARδ, and PPARγ were fused to the yeast transcription factor GAL4 DNA binding domain as a chimera. CV-1 cells were propagated and transiently transfected with expression vectors for the respective PPAR chimera as previously described.

[2] = tested on: diet-induced obese (DIO) AKR/J mouse; assay: Food consumption in diet-induced obese AKR/J mice; type: in vivo; conditions: for effect on food consumption (in words): compared to vehicle-treated animals, doses and regimen as in methods
Protocol: In each experiment, BW of each animal was measured and recorded three times weekly throughout the treatment period. Body mass was obtained weekly on days 0, 7, 13, 20, and 27 of treatment. The effects of selective PPARα, δ, and γ agonists on food consumption were also assessed. Food consumption is expressed as total energy consumed (kcal) over a 24-period and as cumulative consumption over the course of the experiment.
The fat content of Research Diets D12331 chow results in pellets that crumbles making it difficult to quantify food consumption thus, Research Diets D12451 chow (4.7 kcal/g (45% kcal from fat, 35% kcal from carbohydrates and 20% kcal from protein)) was used in studies where food consumption was determined as these pellets are more solid. The animals were transitioned two weeks before compound dosing from Research Diets D12331 chow to Research Diets D12451 chow. Previous experiments (data not presented) have shown that animals fed this diet maintain the same BW and fat mass level as observed at the time of transition.
Experiment 1 was designed to study the effects of a selective PPARα agonist and PPARδ agonist as mono and combination therapy. 48 mice were sorted into 6 groups and blocked such that initial BW and body composition were not different between groups. […] Two additional groups of mice were dosed for the first 14 days with either a PPARα agonist or a PPARδ agonist alone. At day 15, the PPARδ agonist was added to the treatment regimen of animals dosed with PPARα, and the PPARα agonist was added to the dosing material of animals previously dosed with PPARδ alone. The sixth group was dosed with both the PPARα and PPARδ agonists for the entire 28-day period. BW and food consumption were assessed 3 times per week and body composition was measured weekly.
In Experiment 2, 32 mice were sorted into 4 groups (n = 8/group) and dosed with vehicle and a selective PPARγ agonist (GW7845, 3 mg/kg) for 28 days. Rimonabant (RIM, 10 or 30 mg/kg, q.d.), a CB1 receptor antagonist, was used as a positive control for weight loss. As in Experiment 1, BW and food consumption were determined 3 times per week and body composition was measured weekly.

Structure (SMILES)	effect on liver FAO (in words) [1]	increase in FAO ([1]; relative to vehicle control) [fold]	EC50 (murine PPARγ) [nM]	mPPARγ %Max (murine PPARγ) [%]	effect on food consumption (in words) [2]	effect on food consumption (in words) ([2]; listed as PPARδ agonist)	effect on liver FAO (in words) ([1]; listed as PPARγ agonist)	selectivity for PPARγ over the other murine PPAR subtypes (murine PPARγ; murine receptors) [fold]	increase in food consumption ([2]; 3 mg/kg, after only one day) [%]	food consumption elevated ([2]; 3 mg/kg, over the remaining treatment period)	effect on food consumption (in words) ([2]; listed as PPARα agonist)
Cc1cc(SCc2sc(-c3ccc(C(F)(F)F)c(F)c3)nc2C)ccc1OCC(=O)O [GW0742]	significant increase in liver FAO	1.9	10000	67	transient stimulatory effect on food intake from days 12–17	small but statistically significant increase in feeding	–	–	–	–	–
COC(=O)c1ccccc1N[C@@H](Cc1ccc(OCCc2nc(-c3ccccc3)oc2C)cc1)C(=O)O [GW7845]	no effect on FAO in mouse liver	–	1.2	247	–	–	not different from vehicle	> 1000	46	more than 20%	–
CCCCCCCN(CCc1ccc(SC(C)(C)C(=O)O)cc1)C(=O)Nc1ccc(F)cc1F [GW9578]	not different from vehicle	–	2820	96	significant suppression of food intake	–	–	–	–	–	reduced food consumption
